Assay results published in patent publication US20090111893A1, “METHOD OF LOWERING BLOOD GLUCOSE AND METHOD OF PREVENTING OR TREATING BLOOD GLUCOSE AND METHOD OF PREVENTING OR TREATING DIABETES AND OBESITY” (National University Corporation Gunma University, priority 2007, published 2009).

What was measured:
Mouse 3T3-L1 fibroblasts = experiment: Glucose uptake of confluent 3T3-L1 fibroblasts (glucose concentration in medium); assay type: cell-based; details: for glucose uptake-promoting activity: 3T3-L1 cells, same condition as Example 1, FIG. 3, n=3
Procedure: (1) Mouse 3T3-L1 fibroblasts were cultured in 1 ml of a suitable medium (contained in a 12-well plastic dish) for several days until the cells reached confluence. Then, the cells were cultured for 10-12 hours in the nutrition medium (None), the nutrition medium to which only 0.2% ethanol, a solvent of DIF-1, was added (EtOH), and the nutrition medium to which 10 or 20 µM DIF-1 dissolved in ethanol was added, respectively, and then, glucose concentration in each of the media was determined, based on which glucose uptake rate of the cells was calculated and the ratio with respect to the control was plotted (FIG. 1). […] The data of FIG. 1 are shown by mean value and standard deviation (Bars) of four independent experiments (n=4). (2) Then, mouse 3T3L1 fibroblasts were cultured in 1 ml of a suitable medium (contained in a 12-well plastic dish) until the cells reached confluence. After changing the medium to a new medium (this time point corresponds to 0 hour in the graph), DIF-1 was added, and glucose concentration in the medium was measured at the time point of 20 hours (FIG. 2A), based on which glucose consumption rate was calculated (FIG. 2B). Then, the media were changed to new media containing no DIF-1 for all the samples, and after culture was continued for another 20 hours, glucose concentration was measured (FIG. 2A). The number of cells at this time point was also determined (FIG. 2C). The data of the graph are mean values and standard deviations (Bars) (n=3) of the results of triplicate samples evaluated under the same conditions.
Glucose uptake-promoting activity of DIF-1 and its artificial derivatives (2-MIDIF1, DMPH, THPH) were compared in the same condition as Example 1 (FIG. 3). The data of the graph are mean values and standard deviations (Bars) (n=3) of three independent experiments.
Glucose uptake-promoting activity of DIF-1 derivative compounds in 3T3-L1 cells was evaluated in the same manner as described above. The data of the graph are mean values and standard deviations (Bars) (n=3) of triplicate samples measured under the same conditions.

KKAy diabetic model mice = assay type: in vivo; details: for blood glucose level as compared with the control group: KKAy mice, intraperitoneal 25, 50 and 100 mg/kg, 4 and 8 hours after administration, n=2, FIG. 6; for death of mice: mouse, in vivo
Procedure: The in vivo effects of DIF-1 and DIF-1 (3M) were also evaluated with the KKAy diabetic model mice. The drugs were administered intraperitoneally to KKAy mice (male, 13 weeks: Clea Japan) at the concentrations of 25, 50, and 100 mg/kg, respectively, and after free feeding (Time 0), blood glucose level was monitored at the indicated time points (FIG. 6). Each of the experiments used two mice, and the mean values of the relative blood glucose concentrations and ½ variance (Bars)(n=2) were plotted.

[1] = tested on: RGM-1 cells (isolated from rat gastric mucosa); experiment: Glucose uptake of RGM-1 cells (glucose concentration in medium); assay type: cell-based
Procedure: Similar experiments were performed with RGM-1 cells (isolated from rat gastric mucosa) to evaluate the change in glucose concentration in the medium containing DIF-1 or other compounds (FIG. 4). The data of the graph are mean values and standard deviations (Bars) (n=3) of triplicate samples measured under the same conditions.

3T3-L1 adipocytes = experiment: 2-deoxy glucose uptake in 3T3-L1 adipocytes, with or without insulin; assay type: cell-based, mouse
Procedure: Confluent 3T3-L1 fibroblasts (cultured in a 12-well plate) were treated with IBMX (3-isobutyl-1-methylxanhine), dexamethasone, and insulin to induce differentiation into 3T3-L1 adipocytes (Student A K, Hsu R Y & Lane M D (1980) J. Biol. Chem. 255, 4745-4750.). The 3T3-L1 adipocytes were cultured in the presence of DIF-1 whose concentration is shown in FIG. 5 for four hours, and 2-deoxy glucose uptake was measured. At the same time, some of the adipocytes were stimulated with 100 nM insulin during cultivation (after 3.5 hours) in the presence of DIF-1, and cultured for another 30 minutes, and glucose uptake of the cells was measured. Each experiment was performed in triplicates, and the mean values thereof were calculated in each experiment. Such experiments were performed twice and the mean values and ½ variance (Bars) of the two experiments (n=2) were plotted in FIG. 5.

ICR mice = experiment: Blood glucose level in ICR mice after intraperitoneal glucose; assay type: in vivo, mouse; details: glucose 0.3 g/kg i.p. together with DIF-1, 50 mg/kg group and 100 mg/kg group, FIG. 7
Procedure: Glucose (0.3 g/kg) was administered intraperitoneally to ICR mice (male, 6-7 weeks) together with DIF-1 (solvent: 5% DMSO, 5% CREMOPHOR, and 90% distilled water), and blood glucose level was determined from just after the administration. Mice to which only glucose was administered was used as a control group, and mice to which neither glucose nor DIF-1 was administered was used as a normal group.

Q: Which glucose uptake-promoting activity (Mouse 3T3-L1 fibroblasts) does the source give for `COCc1nc2c([nH]1)c(=O)n(C)c(=O)n2CC(C)C` [8-MIBMX, reference compound] here?
A: did not promote glucose uptake

Q: For `CNc1ccc2oc(C[C@H]3O[C@@]4(CC[C@H]3C)O[C@H]([C@H](C)C(=O)c3ccc[nH]3)[C@H](C)C[C@H]4C)nc2c1C(=O)O` [A23187, reference compound], which glucose uptake-promoting activity (Mouse 3T3-L1 fibroblasts) is on record?
A: did not promote glucose uptake

Q: What does the source list for `COc1c(Cl)c(O)c(C(=O)CC(C)(C)C)c(O)c1Cl` [DIF-1 (3M)]?
A: blood glucose level as compared with the control group (KKAy diabetic model mice): low blood glucose level; death of mice (KKAy diabetic model mice): No mice died

Q: With `CCCCCC(=O)c1c(O)c(Cl)c(OC)c(Cl)c1O` [DIF-1] as the compound, how does the “cell morphology and cell damage by microscopic observation” value (Mouse 3T3-L1 fibroblasts; 3T3-L1 fibroblasts in the presence of DIF-1) read?
A: cell damage was not observed

Q: What about the “glucose uptake ratio of the cell (ratio with respect to the control)” value (Mouse 3T3-L1 fibroblasts; 3T3-L1 fibroblasts, 10-12 hours culture, 10 or 20 µM DIF-1, FIG. 1, n=4) of the same compound?
A: increased dependently on DIF-1 concentration

Q: And the “glucose uptake of cells (glucose consumption rate)” value (Mouse 3T3-L1 fibroblasts; 3T3-L1 fibroblasts, 20-hour culture with DIF-1, FIG. 2A/2B, n=3)?
A: promotes glucose uptake of cells in a concentration-dependent manner

Q: And the number of cells (Mouse 3T3-L1 fibroblasts; 3T3-L1 fibroblasts, after 40-hour culture, FIG. 2C)?
A: without influencing the number of cells

Q: And the “reversibility of the action on glucose uptake” value (Mouse 3T3-L1 fibroblasts; 3T3-L1 fibroblasts, medium changed to DIF-1-free medium, another 20 hours, FIG. 2A)?
A: reversible

Q: What about the glucose uptake ([1]; 6- and 12-hour culture, FIG. 4) of the same compound?
A: promotes glucose uptake in a concentration-dependent manner

Q: What about the cell number ([1]; after 12-hour culture, FIG. 4C) of the same compound?
A: without influencing cell number

Q: What about the 2-deoxy glucose uptake (3T3-L1 adipocytes; DIF-1 singly, four hours, FIG. 5, n=2) of the same compound?
A: promoted glucose uptake in a concentration-dependent manner

Q: And the “2-deoxy glucose uptake with insulin” value (3T3-L1 adipocytes; relatively low concentration of DIF-1 plus 100 nM insulin for the last 30 minutes, FIG. 5)?
A: additive effect with insulin

Q: And the “blood glucose level as compared with the control group” value (KKAy diabetic model mice)?
A: low blood glucose level

Q: What about the death of mice (KKAy diabetic model mice) of the same compound?
A: No mice died

Q: What about the “blood glucose level as compared with the control group” value (ICR mice) of the same compound?
A: significantly lowered blood glucose level

Q: Which glucose uptake-promoting activity (Mouse 3T3-L1 fibroblasts) does the source give for `C/C=C(/C)C(=O)O[C@H]1C(C)=C2[C@H]([C@@H]1OC(=O)CCCCCCC)[C@@](C)(OC(C)=O)C[C@H](OC(=O)CCC)[C@@]1(O)[C@H]2OC(=O)[C@@]1(C)O` [Tg, Thapsigargin, reference compound] here?
A: did not promote glucose uptake
